Columns and labels:
Aedes aegypti mosquito [1] = test: USDA Petri Dish Method, 3 min exposure to treated glazed tile; assay type: in vivo; conditions: Aedes aegypti
Description: (§1) Treatments were allowed to dry overnight. USDA Petri Dish Method was used as initial screening protocol. Twenty, 4-6 day old female Aedes aegypti mosquitoes were exposed to each treatment for 3 minutes and then moved to a clean untreated white paper index card. Treatments were replicated a minimum of three times. Mosquito knockdown was evaluated at various intervals through 7 hours after exposure. A small cotton ball soaked in sucrose solution was added on the screen top of the petri-dish as a drinking source. Mortality was evaluated at 24 hours after exposure.
MATERIALS AND METHODS: Solutions of resmethrin at 1 and 0.5% AI were prepared with and without adjuvant in acetone. […] USDA Petri Dish Method was used as initial screening protocol. Twenty, 4-6 day old female Aedes aegypti mosquitoes were exposed to each treatment for 3 minutes and then moved to a clean untreated white paper index card. Treatments were replicated a minimum of three times. Mosquito knockdown was evaluated at 3 minute intervals for the first 15 minutes and then at 5 minute intervals for the remainder of an hour. A small cotton ball soaked in sucrose solution was added on the screen top of the petri-dish as a drinking source. Mortality was evaluated at 24 hours after exposure.
as §1, with “6” for “7”
as §1, with “5 minute” for “various”, “for the first hour and then at 2, 4 and 6 hours.” for “through 7 hours after exposure.”
Treatments were allowed to dry overnight. USDA Petri Dish Method was used as initial screening protocol. Twenty, 4-6 day old female Aedes aegypti mosquitoes were exposed to each treatment for 3 minutes and then moved to a clean untreated white paper index card. Treatments were replicated a minimum of three times. Mosquito knockdown was evaluated at 3-5 minute intervals for the first hour. A small cotton ball soaked in sucrose solution was then added on the screen top of the petri-dish as a drinking source. Mortality was evaluated at 24 hours after exposure.
as §1, with “intervals through 2 hours after” for “intervals through 7 hours after”, “solution was then added on” for “solution was added on”
Treatments were allowed to dry overnight. USDA Petri Dish Method was used as initial screening protocol. Twenty, 4-6 day old female Aedes aegypti mosquitoes were exposed to each treatment for 3 minutes and then moved to a clean untreated white paper index card. Treatments were replicated a minimum of three times. Mosquito knockdown was evaluated at various hourly intervals. […]

Aedes aegypti mosquito [2] = test: USDA Petri Dish Method, 3 min exposure to dipped fiberglass window screen; assay type: in vivo; conditions: dipped screen, 3 min exposure
Description: MATERIALS AND METHODS: Aqueous solutions of 1% deltamethrin with and without an adjuvant composition, which is sold under the tradename Suspend® SC. […] Pre-cut fiberglass screen (5″×5″, or 161.3 cm^2) were dipped in each treatment solution and excessive solution was allowed to drain completely (see FIG. 23 a). Weight of the solution coated on the screen was then determined. The treated screen was then allowed to air-dry overnight. USDA Petri Dish Method was used as initial screening protocol (see FIG. 23 b). Twenty, 4-6 day old female Aedes aegypti were exposed to treated window screen for 3 minutes and then moved onto a clean untreated white paper index card. Treatments were replicated a minimum of three times. Mosquito knockdown was evaluated at 3 minute intervals for the first 15 minutes and then at 5 minute intervals for the remainder of an hour. A small cotton ball with sucrose solution was added on the screen top of the Petri dish as a drinking source. Mortality was evaluated at 24 hours after exposure.
MATERIALS AND METHODS: Several rates of permethrin without adjuvant were prepared using product sold under the tradename Permanone® 40 to determine an effective rate against Aedes aegypti mosquitoes. After determining an effective rate range, aqueous solutions of permethrin at 1.25, 1.0 and 0.05% AI were prepared with and without adjuvant. […] Pre-cut fiberglass screens (5″×5″ or 161.3 cm^2) were dipped in each treatment solution allowing excessive solution to drain completely. Weight of the solution coated on the screen was then determined. The treated screen was then allowed to air-dry overnight. USDA Petri Dish Method was used as initial screening protocol (see photo, right). Twenty, 4-6 day old female Aedes aegypti were exposed to treated window screen for 3 minutes and then moved to a clean untreated white paper index card. Treatments were replicated a minimum of three times. Mosquito knockdown was evaluated at 3 minute intervals for the first 15 minutes and then at 5 minute intervals for the remainder of an hour. A small cotton ball with sucrose solution was added on the screen top of the petri-dish as a drinking source. Mortality was evaluated at 24 hours after exposure.

[3] = Table 39, permethrin without adjuvant (Permanone 40)
[4] = Table 56, glazed tile, 3 min exposure
[5] = Table 56, glazed tile, 3 min exposure, adjuvant = Compound A 1% + Compound B 0.5%
[6] = Table 40, aqueous permethrin/adjuvant

Compound | Average % Knockdown & Mortality after 3 min (Aedes aegypti mosquito [2]; [3]) | Average % Knockdown & Mortality after 9 min (Aedes aegypti mosquito [2]; [3]) | Average % Knockdown & Mortality after 15 min (Aedes aegypti mosquito [2]; [3]) | Average % Knockdown & Mortality after 30 min (Aedes aegypti mosquito [2]; [3]) | Average % Knockdown & Mortality after 60 min (Aedes aegypti mosquito [2]; [3]) | Average % Knockdown & Mortality after 24 hr (Aedes aegypti mosquito [2]; [3]) | further results
CN/C(=N\[N+](=O)[O-])NCc1cnc(Cl)s1 [Clothianidin (1%)] |  |  |  |  |  |  | Average % Knockdown & Mortality after 1 hr (Aedes aegypti mosquito [1]; Table 78, clothianidin study, glazed tile, 3 min exposure, adjuvant = Compound A 1% + Compound B 0.5%, 1 hr): 0%; Average % Knockdown & Mortality after 2 hr (Aedes aegypti mosquito [1]; Table 78, clothianidin study): 0%; Average % Knockdown & Mortality after 4 hr (Aedes aegypti mosquito [1]; Table 78, clothianidin study): 0%; Average % Knockdown & Mortality after 24 hr (Aedes aegypti mosquito [1]; Table 78, clothianidin study): 0%
CC1(C)C(C=C(Cl)Cl)C1C(=O)OCc1cccc(Oc2ccccc2)c1 (stereo not drawn) [Permethrin (2.5%)] | 56% | 100% | 100% | 100% | 100% | 100% | 
CC[S+]([O-])c1c(C#N)nn(-c2c(Cl)cc(C(F)(F)F)cc2Cl)c1N (stereo not drawn) [Ethiprole (.01%)] |  |  |  |  |  |  | Average % Knockdown & Mortality after 4 hr (Aedes aegypti mosquito [1]; [4]): 2%; Average % Knockdown & Mortality after 6 hr (Aedes aegypti mosquito [1]; [4]): 12%; Average % Knockdown & Mortality after 24 hr (Aedes aegypti mosquito [1]; [4]): 17%; Average % Knockdown & Mortality after 2 hr (Aedes aegypti mosquito [1]; [5]): 0%
CC[S+]([O-])c1c(C#N)nn(-c2c(Cl)cc(C(F)(F)F)cc2Cl)c1N (stereo not drawn) [Ethiprole (.1%)] |  |  |  |  |  |  | Average % Knockdown & Mortality after 4 hr (Aedes aegypti mosquito [1]; [4]): 3%; Average % Knockdown & Mortality after 6 hr (Aedes aegypti mosquito [1]; [4]): 15%; Average % Knockdown & Mortality after 24 hr (Aedes aegypti mosquito [1]; [4]): 25%; Average % Knockdown & Mortality after 2 hr (Aedes aegypti mosquito [1]; [5]): 3%
CC1(C)C(C=C(Cl)Cl)C1C(=O)OCc1cccc(Oc2ccccc2)c1 (stereo not drawn) [Permethrin (0.1%)] | 0% | 0% | 0% | 0% | 0% | 5% | 
CC1(C)C(C=C(Cl)Cl)C1C(=O)OCc1cccc(Oc2ccccc2)c1 (stereo not drawn) [Permethrin (1.25%)] | 46% | 71% | 71% | 72% | 79% | 82% | Average % Knockdown & Mortality after 3 min (Aedes aegypti mosquito [2]; [6]): 0%; Average % Knockdown & Mortality after 9 min (Aedes aegypti mosquito [2]; [6]): 0%; Average % Knockdown & Mortality after 15 min (Aedes aegypti mosquito [2]; [6]): 2%; Average % Knockdown & Mortality after 30 min (Aedes aegypti mosquito [2]; [6]): 2%; Average % Knockdown & Mortality after 60 min (Aedes aegypti mosquito [2]; [6]): 3%; Average % Knockdown & Mortality after 24 hr (Aedes aegypti mosquito [2]; [6]): 7%
CC1(C)C(C=C(Cl)Cl)C1C(=O)OCc1cccc(Oc2ccccc2)c1 (stereo not drawn) [Permethrin (5%)] | 75% | 100% | 100% | 100% | 100% | 100% | 
CC1(C)C(C=C(Cl)Cl)C1C(=O)OCc1cccc(Oc2ccccc2)c1 (stereo not drawn) [Permethrin (1.5%)] | 0% | 0% | 2% | 2% | 3% | 16% | 
CC1(C)C(C=C(Cl)Cl)C1C(=O)OCc1cccc(Oc2ccccc2)c1 (stereo not drawn) [Permethrin (1.0%)] | 0% | 2% | 2% | 5% | 18% | 34% | Average % Knockdown & Mortality after 3 min (Aedes aegypti mosquito [2]; [6]): 2%; Average % Knockdown & Mortality after 9 min (Aedes aegypti mosquito [2]; [6]): 2%; Average % Knockdown & Mortality after 15 min (Aedes aegypti mosquito [2]; [6]): 2%; Average % Knockdown & Mortality after 30 min (Aedes aegypti mosquito [2]; [6]): 4%; Average % Knockdown & Mortality after 60 min (Aedes aegypti mosquito [2]; [6]): 13%; Average % Knockdown & Mortality after 24 hr (Aedes aegypti mosquito [2]; [6]): 28%

Source: patent US9028856B2, “Synergistic pesticide compositions” (priority 2008, dated 2015)
